Experimental data reported in patent US6387893B1, “Spirotricyclic substituted azacycloalkane derivatives and uses thereof” (Merck & Co., Inc., priority 1999, dated 2002).
pKi: −log10 of the molar value. Structures can show the parent of a compound that is named as a salt.

Tested on: not given
Assay: not given
Conditions: not given

SMILES | melting point [°C]
O=C(NCCCN1CCC2(CC1)c1ccccc1[S+]([O-])c1ccccc12)N1C(=O)OC[C@@H]1c1ccc(F)c(F)c1 (as salt: HCl) [Example 26, 1′-{3-[(4S)-(3,4-Difluorophenyl)-2-oxooxazolidin-3-carbonylamino]propyl}-(10-oxo-spirothioxanthene-9,4′-piperidine)] | 184 to 193
O=C(NCCCN1CCC2(CC1)c1ccccc1CCc1ccccc12)N1C(=O)OC[C@@H]1c1ccc(F)c(F)c1 (as salt: hydrochloride) [Example 57, 1′-{3-[4(S)-(3,4-difluorophenyl)-2-oxooxazolidin-3-carbonylamino]-propyl}-(10,11-dihydrospiro-5H-dibenzo[a,d]cycloheptene)-5,4′-piperidine] | 146 to 177
COCC1=C(C(=O)OC)C(c2ccc(F)c(F)c2)N(C(=O)NCCCN2CCC3(CC2)c2ccccc2Sc2ccccc23)C(=O)N1 (stereo not drawn) (as salt: HCl) | 140 to 170

Continued, values first:

melting point [°C] | SMILES
140 to 176 | O=C(NCCCN1CCC2(CC1)c1ccccc1Sc1ccccc12)N1C(=O)OC[C@@H]1c1ccc(F)c(F)c1 (as salt: HCl)
138 to 139 | O=C(NCCCN1CCC2(CC1)c1ccccc1Oc1ccccc12)N1C(=O)OC[C@@H]1c1ccc(F)c(F)c1 [Example 35, 1′-{3-[(4S)-(3,4-Difluorophenyl)-2-oxooxazolidin-3-carbonylamino]propyl}spiroxanthene-9,4′-piperidine]

Target: T1, human alpha 1a adrenergic receptor (Homo sapiens, UniProt P35348)
T1 sequence (P35348 1-466): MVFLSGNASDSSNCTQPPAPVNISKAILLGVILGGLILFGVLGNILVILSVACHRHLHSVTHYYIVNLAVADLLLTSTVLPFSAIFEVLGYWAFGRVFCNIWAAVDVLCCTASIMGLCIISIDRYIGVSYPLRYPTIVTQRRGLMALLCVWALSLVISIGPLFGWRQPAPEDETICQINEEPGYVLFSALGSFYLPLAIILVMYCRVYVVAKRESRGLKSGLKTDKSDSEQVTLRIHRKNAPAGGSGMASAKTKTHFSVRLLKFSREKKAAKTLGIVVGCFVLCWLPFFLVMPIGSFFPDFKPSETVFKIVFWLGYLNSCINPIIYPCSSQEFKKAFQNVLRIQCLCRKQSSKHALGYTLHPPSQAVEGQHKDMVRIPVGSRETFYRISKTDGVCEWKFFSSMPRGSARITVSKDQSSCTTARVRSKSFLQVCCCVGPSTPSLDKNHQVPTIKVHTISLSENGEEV
Assay: Screening assay: alpha 1a adrenergic receptor binding ([125I]-HEAT competition)
Conditions: membranes from stably transfected human alpha 1a cell line (ATCC CRL 11140), 100 pM [125I]-HEAT
Protocol: Screening Assay: Alpha 1a Adrenergic Receptor Binding
Membranes prepared from the stably transfected human alpha 1a cell line (ATCC CRL 11140) were used to identify compounds that bind to the human alpha 1a adrenergic receptor. These competition binding reactions (total volume=200 μl) contained 50 mM Tris-HCl pH. 7.4, 5 mM EDTA, 150 mM NaCl, 100 pM [^125I]-HEAT, membranes prepared from the alpha 1a cell line and increasing amounts of unlabeled ligand. Reactions were incubated at room temperature for one hour with shaking. Reactions were filtered onto Whatman GF/C glass fiber filters with a Inotec 96 well cell harvester. Filters were washed three times with ice cold buffer and bound radioactivity was determined (Ki).

pKi | SMILES
> 7.70 | O=C(NCCCN1CCC2(CC1)c1ccccc1Oc1ccccc12)N1C(=O)OC[C@@H]1c1ccc(F)c(F)c1 [Example 35, 1′-{3-[(4S)-(3,4-Difluorophenyl)-2-oxooxazolidin-3-carbonylamino]propyl}spiroxanthene-9,4′-piperidine]
